Reference: patent publication US12685735B2 (Foghorn Therapeutics Inc., priority 2020, dated 2026)
Where two headings read alike, the source gives them in different places.

Tests used:
[1] = biological target: BRG-1 (Homo sapiens, UniProt P51532); assay: ATPase catalytic activity assay of BRG-1 (ADP-Glo); format: biochemical; conditions: ATPase catalytic activity, ADP-Glo; for IC50: read-out: BRG1 IC50 (μM)*; for Emax: read-out: BRG1 Max % Inhibition
Procedure, shortened: (§1)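 Two room-temperature incubations follow the reaction: 40 min to eliminate unused ATP, then 60 min to turn ADP into ATP driving luciferase light output. Activity is read as luminescence proportional to ADP formed.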

[2] = biological target: BRM (Homo sapiens, UniProt P51531); assay: ATPase catalytic activity assay of BRM (ADP-Glo); format: biochemical; conditions: for IC50: read-out: BRM IC50 (μM)*
Sequence of BRM (P51531 whole entry): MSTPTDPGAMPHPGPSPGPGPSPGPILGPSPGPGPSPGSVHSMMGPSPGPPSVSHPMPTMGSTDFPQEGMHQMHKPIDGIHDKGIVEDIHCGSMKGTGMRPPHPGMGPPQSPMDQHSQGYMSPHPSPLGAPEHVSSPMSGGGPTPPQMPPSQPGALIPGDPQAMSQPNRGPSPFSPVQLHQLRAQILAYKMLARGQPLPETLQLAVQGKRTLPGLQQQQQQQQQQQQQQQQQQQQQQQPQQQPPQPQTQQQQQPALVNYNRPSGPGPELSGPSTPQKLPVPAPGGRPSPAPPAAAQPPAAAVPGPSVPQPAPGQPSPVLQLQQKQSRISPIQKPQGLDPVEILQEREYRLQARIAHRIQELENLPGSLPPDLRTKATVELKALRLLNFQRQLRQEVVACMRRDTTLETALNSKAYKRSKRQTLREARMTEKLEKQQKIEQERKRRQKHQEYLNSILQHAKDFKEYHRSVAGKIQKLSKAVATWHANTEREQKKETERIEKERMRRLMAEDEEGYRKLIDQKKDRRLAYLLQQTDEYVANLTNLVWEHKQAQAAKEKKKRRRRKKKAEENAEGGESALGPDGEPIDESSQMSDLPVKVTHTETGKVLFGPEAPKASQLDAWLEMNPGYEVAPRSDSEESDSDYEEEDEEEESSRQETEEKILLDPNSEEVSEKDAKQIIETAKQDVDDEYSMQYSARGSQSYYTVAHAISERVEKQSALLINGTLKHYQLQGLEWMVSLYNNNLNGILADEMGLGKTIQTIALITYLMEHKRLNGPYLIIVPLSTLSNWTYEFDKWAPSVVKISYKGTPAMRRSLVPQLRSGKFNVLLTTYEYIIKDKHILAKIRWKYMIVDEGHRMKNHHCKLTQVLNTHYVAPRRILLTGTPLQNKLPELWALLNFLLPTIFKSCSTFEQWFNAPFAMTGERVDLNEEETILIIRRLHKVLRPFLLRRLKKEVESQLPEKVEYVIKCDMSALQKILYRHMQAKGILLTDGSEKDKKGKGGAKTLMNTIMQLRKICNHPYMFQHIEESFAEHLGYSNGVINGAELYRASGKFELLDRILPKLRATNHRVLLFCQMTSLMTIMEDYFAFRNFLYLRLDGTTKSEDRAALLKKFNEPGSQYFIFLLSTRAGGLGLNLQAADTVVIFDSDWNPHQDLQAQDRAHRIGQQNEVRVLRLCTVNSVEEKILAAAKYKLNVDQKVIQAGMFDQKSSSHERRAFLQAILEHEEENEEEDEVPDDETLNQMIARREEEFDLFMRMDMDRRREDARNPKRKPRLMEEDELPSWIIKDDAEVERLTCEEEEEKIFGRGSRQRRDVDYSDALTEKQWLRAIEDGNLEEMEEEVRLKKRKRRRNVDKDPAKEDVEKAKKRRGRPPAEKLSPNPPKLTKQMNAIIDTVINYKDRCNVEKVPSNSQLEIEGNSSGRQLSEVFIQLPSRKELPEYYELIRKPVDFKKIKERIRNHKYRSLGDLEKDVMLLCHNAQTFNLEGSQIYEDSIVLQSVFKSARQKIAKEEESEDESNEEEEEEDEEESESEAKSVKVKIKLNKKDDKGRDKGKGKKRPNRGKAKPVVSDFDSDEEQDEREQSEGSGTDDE
Procedure, shortened: as §1

Sequence of BRG-1 (P51532 whole entry): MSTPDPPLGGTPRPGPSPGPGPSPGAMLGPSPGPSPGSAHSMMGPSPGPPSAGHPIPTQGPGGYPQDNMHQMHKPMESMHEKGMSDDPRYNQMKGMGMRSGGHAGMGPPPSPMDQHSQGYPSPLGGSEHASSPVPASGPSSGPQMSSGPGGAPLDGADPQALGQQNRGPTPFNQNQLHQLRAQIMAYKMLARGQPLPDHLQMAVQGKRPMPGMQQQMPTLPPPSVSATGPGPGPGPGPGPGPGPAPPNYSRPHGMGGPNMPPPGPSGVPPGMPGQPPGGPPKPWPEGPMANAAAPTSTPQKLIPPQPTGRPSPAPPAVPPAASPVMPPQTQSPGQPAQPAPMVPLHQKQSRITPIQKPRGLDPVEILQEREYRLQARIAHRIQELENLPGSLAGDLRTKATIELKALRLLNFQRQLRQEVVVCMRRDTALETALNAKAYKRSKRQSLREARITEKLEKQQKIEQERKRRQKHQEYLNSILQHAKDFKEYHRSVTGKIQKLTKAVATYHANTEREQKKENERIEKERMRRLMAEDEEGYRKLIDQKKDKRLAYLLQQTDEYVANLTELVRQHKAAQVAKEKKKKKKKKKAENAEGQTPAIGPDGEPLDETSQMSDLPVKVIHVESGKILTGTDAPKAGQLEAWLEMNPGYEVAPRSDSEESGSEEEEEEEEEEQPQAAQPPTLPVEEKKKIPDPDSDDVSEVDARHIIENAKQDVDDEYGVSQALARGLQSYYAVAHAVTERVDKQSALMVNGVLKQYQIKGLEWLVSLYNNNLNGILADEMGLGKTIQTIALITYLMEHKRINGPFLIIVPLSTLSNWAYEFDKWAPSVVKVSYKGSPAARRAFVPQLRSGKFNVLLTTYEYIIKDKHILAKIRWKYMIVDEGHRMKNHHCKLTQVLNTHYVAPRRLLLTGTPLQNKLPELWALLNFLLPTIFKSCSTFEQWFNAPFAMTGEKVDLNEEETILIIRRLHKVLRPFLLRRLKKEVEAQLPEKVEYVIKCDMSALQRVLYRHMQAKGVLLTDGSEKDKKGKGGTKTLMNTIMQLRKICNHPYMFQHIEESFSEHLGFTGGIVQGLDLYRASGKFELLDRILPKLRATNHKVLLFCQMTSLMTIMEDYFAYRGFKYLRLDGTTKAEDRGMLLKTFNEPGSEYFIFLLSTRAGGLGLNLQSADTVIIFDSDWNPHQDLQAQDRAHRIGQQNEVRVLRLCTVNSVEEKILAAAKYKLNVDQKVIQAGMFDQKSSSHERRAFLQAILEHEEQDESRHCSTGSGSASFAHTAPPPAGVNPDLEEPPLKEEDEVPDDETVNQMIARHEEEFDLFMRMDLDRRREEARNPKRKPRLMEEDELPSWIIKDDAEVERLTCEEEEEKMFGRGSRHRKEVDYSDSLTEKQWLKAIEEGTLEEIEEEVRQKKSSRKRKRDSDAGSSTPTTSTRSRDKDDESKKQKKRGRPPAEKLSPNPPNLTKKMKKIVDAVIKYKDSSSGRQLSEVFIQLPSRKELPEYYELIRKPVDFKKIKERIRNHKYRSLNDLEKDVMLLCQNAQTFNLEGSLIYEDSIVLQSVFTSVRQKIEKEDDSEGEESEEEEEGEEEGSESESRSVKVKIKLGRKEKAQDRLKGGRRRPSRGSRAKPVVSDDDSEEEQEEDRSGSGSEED

| Structure (SMILES) | IC50 [1] [µM] | Emax [1] [%] | BRM Max % Inhibition [2] [%] | IC50 [2] [µM] | IC50 ([1]; 30 nM BRG-1, 400 μM ATP) [µM] | Emax ([1]; 30 nM BRG-1, 400 μM ATP) [%] | BRM Max % Inhibition ([2]; 30 nM BRM, 400 μM ATP) [%] | IC50 ([2]; 30 nM BRM, 400 μM ATP) [µM] | BRG1 Max % Inhibition [1] [%] |
| --- | --- | --- | --- | --- | --- | --- | --- | --- | --- |
| COC1CN(c2cccc(-c3csc(NC(=O)CNC(=O)c4ccc5c(c4)[C@](C)(C#N)COC5)n3)c2)C1 [Compound 390, (R)-4-cyano-N-(2-((4-(3-(3-methoxyazetidin-1-yl)phenyl)thiazol-2-yl)amino)-2-oxoethyl)-4-methylisochromane-6-carboxamide] | < 0.1 | > 95 | >95 | < 0.1 |  |  |  |  |  |
| C[C@@H]1CN(c2cccc(-c3csc(NC(=O)CNC(=O)c4ccc5c(c4)[C@@](C)(CO)CC5)n3)n2)C[C@H](C)O1 [Compound 224, (3S)-N-[2-[[4-[6-[(cis)-2,6-dimethylmorpholin-4-yl]-2-pyridyl]thiazol-2-yl]amino]-2-oxo-ethyl]-3-(hydroxymethyl)-3-methyl-indane-5-carboxamide] | 0.1 to 1 | > 95 | >95 | < 0.1 |  |  |  |  |  |
| COc1cc(-c2cccc(-c3csc(NC(=O)CNC(=O)c4cccc(S(=O)(=O)C(C)C)c4)n3)c2)nc(C)n1 [Compound 123, 3-isopropylsulfonyl-N-[2-[[4-[3-(6-methoxy-2-methyl-pyrimidin-4-yl)phenyl]thiazol-2-yl]amino]-2-oxo-ethyl]benzamide] | 0.1 to 1 | > 80 | >95 | < 0.1 |  |  |  |  |  |
| C[C@@H]1CN(c2cccc(-c3csc(NC(=O)CNC(=O)c4ccc5c(c4)[C@](C)(CO)CO5)n3)n2)C[C@H](C)O1 (single isomer, unassigned) [Compound 132] | > 5 | > 50 | >80 | 0.1 to 1 |  |  |  |  |  |
| Cc1cc(-c2cccc(-c3csc(NC(=O)CNC(=O)c4cccc(S(=O)(=O)C(C)CN)c4)n3)c2)cc(C)n1 (centres unmarked) [Compound 114, 3-((1-aminopropan-2-yl)sulfonyl)-N-(2-((4-(3-(2,6-dimethylpyridin-4-yl)phenyl)thiazol-2-yl)amino)-2-oxoethyl)benzamide] | 0.1 to 1 | > 95 | >90 | < 0.1 |  |  |  |  |  |
| COc1cccc(-c2csc(NC(=O)CNC(=O)c3ccc4c(c3)[C@](C)(F)CCOC4)n2)c1 [Compound 279, (R)-5-fluoro-N-(2-((4-(3-methoxyphenyl)thiazol-2-yl)amino)-2-oxoethyl)-5-methyl-1,3,4,5-tetrahydrobenzo[c]oxepine-7-carboxamide] | 0.1 to 1 | > 90 | >90 | 0.1 to 1 |  |  |  |  |  |
| COC(=O)N1CCCC(c2csc(NC(=O)CNC(=O)c3ccc4c(c3)[C@](C)(F)COC4)n2)C1 (stereo in doubt) [Compound 302, methyl (S)-3-(2-(2-((S)-4-fluoro-4-methylisochromane-6-carboxamido)acetamido)thiazol-4-yl)piperidine-1-carboxylate] | 0.1 to 1 | > 95 | >95 | < 0.1 |  |  |  |  |  |
| CC(=O)N1CC(c2cccc(-c3csc(NC(=O)CNC(=O)c4ccc5c(c4)[C@](C)(C#N)COC5)n3)c2)C1 [Compound 379, (R)-N-(2-((4-(3-(1-acetylazetidin-3-yl)phenyl)thiazol-2-yl)amino)-2-oxoethyl)-4-cyano-4-methylisochromane-6-carboxamide] | 0.1 to 1 | > 95 | >95 | < 0.1 |  |  |  |  |  |
| C[C@@H]1CN(c2cccc(-c3csc(NC(=O)CNC(=O)c4ccc5c(c4)C4(COC5)COC4)n3)n2)C[C@H](C)O1 [Compound 300, N-(2-((4-(6-((cis)-2,6-dimethylmorpholino)pyridin-2-yl)thiazol-2-yl)amino)-2-oxoethyl)spiro[isochromane-4,3′-oxetane]-6-carboxamide] | 0.1 to 1 | > 95 | >95 | < 0.1 |  |  |  |  |  |
| C[C@@H]1CN(c2cccc(-c3csc(NC(=O)CNC(=O)c4ccc5c(c4)[C@@](F)(C(F)F)CCO5)n3)c2)C[C@H](C)O1 [Compound 275, (R)-4-(difluoromethyl)-N-(2-((4-(3-((cis)-2,6-dimethylmorpholino)phenyl)thiazol-2-yl)amino)-2-oxoethyl)-4-fluorochromane-6-carboxamide] | 0.1 to 1 | > 95 | >95 | < 0.1 |  |  |  |  |  |
| CC1(C)c2cc(C(=O)NCC(=O)Nc3nc(-c4cccc(-c5ccncc5)c4)cs3)ccc2C[C@@H]1N [Compound 250, (S)-2-amino-3,3-dimethyl-N-(2-oxo-2-((4-(3-(pyridin-4-yl)phenyl)thiazol-2-yl)amino)ethyl)-2,3-dihydro-1H-indene-5-carboxamide] | > 5 | > 50 | >70 | 1 to 5 |  |  |  |  |  |
| COc1nc(C)cc(-c2cccc(-c3csc(NC(=O)CNC(=O)c4cccc(S(=O)(=O)C(C)C)c4)n3)c2)n1 [Compound 122, 3-isopropylsulfonyl-N-[2-[[4-[3-(2-methoxy-6-methyl-pyrimidin-4-yl)phenyl]thiazol-2-yl]amino]-2-oxoethyl]benzamide] | < 0.1 | > 95 | >95 | < 0.1 |  |  |  |  |  |
| C[C@@]1(C#N)COCc2ccc(C(=O)NC3(C(=O)Nc4nc(-c5cccc(C(F)F)c5)cs4)CC3)cc21 [Compound 333, (R)-4-cyano-N-(1-((4-(3-(difluoromethyl)phenyl)thiazol-2-yl)carbamoyl)cyclopropyl)-4-methylisochromane-6-carboxamide] | 1 to 5 | > 75 | >75 | 0.1 to 1 |  |  |  |  |  |
| C[C@@H]1CN(c2cccc(-c3csc(NC(=O)CNC(=O)c4cccc([C@]5(C)COC[C@H]5O)c4)n3)n2)C[C@H](C)O1 [Compound 408] | 1 to 5 | > 90 | >90 | 0.1 to 1 |  |  |  |  |  |
| C[C@@H]1CN(c2cccc(-c3csc(NC(=O)CNC(=O)c4cccc([C@@]5(C)COC[C@@H]5O)c4)n3)n2)C[C@H](C)O1 (stereo in doubt) [Compound 413, N-(2-((4-(6-((cis)-2,6-dimethylmorpholino)pyridin-2-yl)thiazol-2-yl)amino)-2-oxoethyl)-3-((cis)-4-hydroxy-3-methyltetrahydrofuran-3-yl)benzamide] |  |  |  |  | 1 to 5 | > 95 | >95 | 0.1 to 1 |  |
| CC(C)(CN)c1cccc(C(=O)NCC(=O)Nc2nc(-c3cccc(-c4cccc(CN)c4)c3)cs2)c1 [Compound 209, 3-(2-amino-1,1-dimethyl-ethyl)-N-[2-[[4-[3-[3-(aminomethyl)phenyl]phenyl]thiazol-2-yl]amino]-2-oxo-ethyl]benzamide] | 1 to 5 | > 50 | >90 | 0.1 to 1 |  |  |  |  |  |
| C[C@@]1(C#N)COCc2ccc(C(=O)NCC(=O)Nc3nc(-c4cc(F)c5c(c4)OCC5)cs3)cc21 [Compound 353, (R)-4-cyano-N-(2-((4-(4-fluoro-2,3-dihydrobenzofuran-6-yl)thiazol-2-yl)amino)-2-oxoethyl)-4-methylisochromane-6-carboxamide] | < 0.1 | > 95 | >95 | < 0.1 |  |  |  |  |  |
| CC(C(F)(F)F)S(=O)(=O)c1cccc(C(=O)NCC(=O)Nc2nc(-c3cccc(-c4ccncc4)c3)cs2)c1 (centres unmarked) [Compound 113, N-(2-oxo-2-((4-(3-(pyridin-4-yl)phenyl)thiazol-2-yl)amino)ethyl)-3-((1,1,1-trifluoropropan-2-yl)sulfonyl)benzamide] | 0.1 to 1 |  | >80 | 0.1 to 1 |  |  |  |  | >50 |
| CC1(CO)CCc2ccc(C(=O)NCC(=O)Nc3nc(-c4cccc(-c5ccncc5)c4)cs3)cc21 (single isomer, unassigned) [Compound 105] | < 0.1 | > 90 | >95 | < 0.1 |  |  |  |  |  |
| C[C@@H]1CN(c2cccc(-c3csc(NC(=O)CNC(=O)c4ccnc(C(C)(C)CO)c4)n3)c2)C[C@H](C)O1 [Compound 139, N-[2-[[4-[3-[(cis)-2,6-dimethylmorpholin-4-yl]phenyl]thiazol-2-yl]amino]-2-oxo-ethyl]-2-(2-hydroxy-1,1-dimethyl-ethyl)pyridine-4-carboxamide] | 1 to 5 | > 70 | >95 | 0.1 to 1 |  |  |  |  |  |
| C[C@@]1(CO)CCc2ccc(C(=O)NCC(=O)Nc3nc(-c4cccc(-c5cnccn5)n4)cs3)cc21 [Compound 167, (R)-3-(hydroxymethyl)-3-methyl-N-(2-oxo-2-((4-(6-(pyrazin-2-yl)pyridin-2-yl)thiazol-2-yl)amino)ethyl)-2,3-dihydro-1H-indene-5-carboxamide] | > 5 | > 50 | >95 | 0.1 to 1 |  |  |  |  |  |
| COc1cc(-c2cccc(-c3csc(NC(=O)CNC(=O)c4cccc(C(C)(C)CN)c4)n3)c2)ccn1 [Compound 49, 3-(1-amino-2-methylpropan-2-yl)-N-(2-((4-(3-(2-methoxypyridin-4-yl)phenyl)thiazol-2-yl)amino)-2-oxoethyl)benzamide] | > 5 | > 60 | >80 | 0.1 to 1 |  |  |  |  |  |
| C[C@@H]1CN(c2cccc(-c3csc(NC(=O)CNC(=O)c4ccc5c(c4)[C@@](C)(C#N)COC5)n3)c2)C[C@H](C)O1 [Compound 171, (S)-4-cyano-N-(2-((4-(3-((cis)-2,6-dimethylmorpholino)phenyl)thiazol-2-yl)amino)-2-oxoethyl)-4-methylisochroman-6-carboxamide] | 1 to 5 | > 70 | >80 | 0.1 to 1 |  |  |  |  |  |
